Biological target: T1, KCNT1 (KNa1.1, Slack) (Homo sapiens, UniProt Q5JUK3)
T1 construct: expressed in transfected cells; host or cells: HEK-TREX (tetracycline-inducible HEK cell line)
T1 sequence (Q5JUK3 1-1230): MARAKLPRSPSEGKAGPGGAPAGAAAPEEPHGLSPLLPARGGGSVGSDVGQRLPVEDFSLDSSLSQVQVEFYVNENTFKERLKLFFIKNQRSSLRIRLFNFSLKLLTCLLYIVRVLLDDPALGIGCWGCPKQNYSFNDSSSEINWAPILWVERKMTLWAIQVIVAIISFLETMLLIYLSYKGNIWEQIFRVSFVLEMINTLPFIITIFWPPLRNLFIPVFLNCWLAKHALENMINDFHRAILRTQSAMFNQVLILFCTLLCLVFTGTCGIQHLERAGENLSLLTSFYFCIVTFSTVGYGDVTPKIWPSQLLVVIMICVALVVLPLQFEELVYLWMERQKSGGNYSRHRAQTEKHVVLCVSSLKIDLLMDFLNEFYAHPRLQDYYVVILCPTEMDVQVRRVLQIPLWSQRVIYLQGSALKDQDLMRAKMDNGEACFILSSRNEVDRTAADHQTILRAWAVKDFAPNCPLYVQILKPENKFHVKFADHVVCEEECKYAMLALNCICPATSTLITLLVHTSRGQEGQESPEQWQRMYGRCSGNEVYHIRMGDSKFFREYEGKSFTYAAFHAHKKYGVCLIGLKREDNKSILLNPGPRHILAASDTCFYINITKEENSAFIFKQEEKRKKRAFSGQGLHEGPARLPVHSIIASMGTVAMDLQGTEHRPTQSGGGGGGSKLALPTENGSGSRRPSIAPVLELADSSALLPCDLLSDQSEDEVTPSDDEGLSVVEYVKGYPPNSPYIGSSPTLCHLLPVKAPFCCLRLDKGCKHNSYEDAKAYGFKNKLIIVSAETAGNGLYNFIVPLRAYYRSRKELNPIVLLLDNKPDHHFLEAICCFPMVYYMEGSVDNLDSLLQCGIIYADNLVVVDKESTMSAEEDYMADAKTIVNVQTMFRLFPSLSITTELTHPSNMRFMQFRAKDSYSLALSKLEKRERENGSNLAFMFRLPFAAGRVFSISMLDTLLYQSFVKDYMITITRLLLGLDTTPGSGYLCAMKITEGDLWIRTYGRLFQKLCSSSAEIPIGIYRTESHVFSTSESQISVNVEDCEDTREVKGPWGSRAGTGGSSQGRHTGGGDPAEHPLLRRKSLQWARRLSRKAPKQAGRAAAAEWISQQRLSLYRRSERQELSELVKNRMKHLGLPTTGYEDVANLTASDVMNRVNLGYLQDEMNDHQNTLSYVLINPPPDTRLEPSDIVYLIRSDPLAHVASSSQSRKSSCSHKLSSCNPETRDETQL
Test: KCNT1 patch clamp assay (SyncroPatch 384PE automated patch clamp)
Assay type: cell-based
Details: tetracycline inducible cell line (HEK-TREX); perforated patch mode; step from -80 mV to 0 mV; room temperature; read-out: KCNT1-WT IC50
Protocol: Inhibition of KCNT1 (KNa1.1, Slack) was evaluated using a tetracycline inducible cell line (HEK-TREX). Currents were recorded using the SyncroPatch 384PE automated, patch clamp system. Pulse generation and data collection were performed with PatchController384 V1.3.0 and DataController384 V1.2.1 (Nanion Technologies). The access resistance and apparent membrane capacitance were estimated using built-in protocols. Current were recorded in perforated patch mode (10 μM escin) from a population of cells. The cells were lifted, triturated, and resuspended at 800,000 cells/ml. The cells were allowed to recover in the cell hotel prior to experimentation. Currents were recorded at room temperature. The external solution contained the following (in mM): NaCl 105, NMDG 40, KCl 4, MgCl2 1, CaCl2 5 and HEPES 10 (pH=7.4, Osmolarity ˜300 mOsm). The extracellular solution was used as the wash, reference and compound delivery solution. The internal solution contained the following (in mM): NaCl 70, KF 70, KCl 10, EGTA 5, HEPES 5 and Escin 0.01 (pH=7.2, Osmolarity ˜295 mOsm). Escin is made at a 5 mM stock in water, aliquoted, and stored at −20° C. The compound plate was created at 2× concentrated in the extracellular solution. The compound was diluted to 1:2 when added to the recording well. The amount of DMSO in the extracellular solution was held constant at the level used for the highest tested concentration. A holding potential of −80 mV with a 100 ms step to 0 mV was used. Mean current was measured during the step to 0 mV. […] The average mean current from 3 sweeps was calculated and the % inhibition of each compound was calculated. The % Inhibition as a function of the compound concentration was fit with a Hill equation to derive IC50, slope, min and max parameters. If KCNT1 inhibition was less than 50% at the highest tested concentration or if an IC50 could not be calculated, then a percent inhibition was reported in place of the IC50.
In this table, “A” indicates IC50 of less than or equal to 1 μM; “B” indicates inhibition of between 1 μM to 20 μM; and “C” indicates inhibition of greater than or equal to 20 μM.

SMILES | IC50
CNS(=O)(=O)c1ccc(C(=O)N[C@H](C)c2ccc(Cl)cc2Cl)s1 [Compound 1, (R)—N-(1-(2,4-dichlorophenyl)ethyl)-5-(N-methylsulfamoyl)thiophene-2-carboxamide] | 1 to 20 µM
CNS(=O)(=O)c1ccc(C(=O)N[C@@H](C)c2ccc(Cl)cc2Cl)s1 [Compound 2, (S)—N-(1-(2,4-dichlorophenyl)ethyl)-5-(N-methylsulfamoyl)thiophene-2-carboxamide] | ≤ 1 µM
CNS(=O)(=O)c1ccc(C(=O)NCc2ccc(Cl)cc2Cl)s1 [Compound 3, N-(2,4-dichlorobenzyl)-5-(N-methylsulfamoyl)thiophene-2-carboxamide] | ≤ 1 µM
CNS(=O)(=O)c1ccc(C(=O)N[C@@H](C)c2ccc(Cl)cc2)s1 [Compound 5, (S)—N-(1-(4-chlorophenyl)ethyl)-5-(N-methylsulfamoyl)thiophene-2-carboxamide] | ≤ 1 µM
CNS(=O)(=O)c1ccc(C(=O)NCc2ccc(Cl)cc2)s1 [Compound 7, N-(4-chlorobenzyl)-5-(N-methylsulfamoyl)thiophene-2-carboxamide] | ≤ 1 µM
CNS(=O)(=O)c1ccc(C(=O)NCc2ccc(Cl)cc2C(F)(F)F)s1 [Compound 8, N-(4-chloro-2-(trifluoromethyl)benzyl)-5-(N-methylsulfamoyl)thiophene-2-carboxamide] | ≤ 1 µM
CNS(=O)(=O)c1ccc(C(=O)NCc2ccc(Cl)cc2C)s1 [Compound 9, N-(4-chloro-2-methylbenzyl)-5-(N-methylsulfamoyl)thiophene-2-carboxamide] | ≤ 1 µM
CNS(=O)(=O)c1ccc(C(=O)NCc2ccc(Cl)cc2F)s1 [Compound 10, N-(4-chloro-2-fluorobenzyl)-5-(N-methylsulfamoyl)thiophene-2-carboxamide] | ≤ 1 µM
CNS(=O)(=O)c1ccc(C(=O)NCc2ccc(Cl)cc2C2CC2)s1 [Compound 12, N-(4-chloro-2-cyclopropylbenzyl)-5-(N-methylsulfamoyl)thiophene-2-carboxamide] | ≤ 1 µM
O=C(NCc1ccc(Cl)cc1Cl)c1ccc(S(=O)(=O)C2CC2)s1 [Compound 15, 5-(Cyclopropylsulfonyl)-N-(2,4-dichlorobenzyl)thiophene-2-carboxamide] | ≤ 1 µM
CNS(=O)(=O)c1ccc(C(=O)NCc2cccc(Cl)c2)s1 [Compound 18, N-(3-chlorobenzyl)-5-(N-methylsulfamoyl)thiophene-2-carboxamide] | ≤ 1 µM
CNS(=O)(=O)c1ccc(C(=O)NCc2ccc(C(C)C)cc2)s1 [Compound 19, N-(4-isopropylbenzyl)-5-(N-methylsulfamoyl)thiophene-2-carboxamide] | ≤ 1 µM
CNS(=O)(=O)c1ccc(C(=O)NCc2ccc(Cl)c(F)c2)s1 [Compound 20, N-(4-chloro-3-fluorobenzyl)-5-(N-methylsulfamoyl)thiophene-2-carboxamide] | ≤ 1 µM
CNS(=O)(=O)c1ccc(C(=O)NCc2ccc(C)cc2)s1 [Compound 22, N-(4-methylbenzyl)-5-(N-methylsulfamoyl)thiophene-2-carboxamide] | ≤ 1 µM
CS(=O)(=O)c1ccc(C(=O)NCc2ccc(N3CCCC3)cc2)s1 [Compound 23, 5-(methylsulfonyl)-N-(4-(pyrrolidin-1-yl)benzyl)thiophene-2-carboxamide] | ≥ 20 µM
CC(C)c1ccc(CNC(=O)c2ccc(S(C)(=O)=O)s2)cc1 [Compound 24, N-(4-isopropylbenzyl)-5-(methylsulfonyl)thiophene-2-carboxamide] | ≤ 1 µM
CNS(=O)(=O)c1ccc(C(=O)NCc2ccc(C(C)(C)C)cc2)s1 [Compound 28, N-(4-(tert-butyl)benzyl)-5-(N-methylsulfamoyl)thiophene-2-carboxamide] | ≤ 1 µM
CNS(=O)(=O)c1ccc(C(=O)NCc2ccc(C(F)(F)F)cc2)s1 [Compound 29, 5-(N-methylsulfamoyl)-N-(4-(trifluoromethyl)benzyl)thiophene-2-carboxamide] | ≤ 1 µM

Now from value to compound:

IC50 | SMILES
≤ 1 µM | CNS(=O)(=O)c1ccc(C(=O)N[C@H](C)c2ccc(Cl)cc2)s1 [Compound 4, (R)—N-(1-(4-chlorophenyl)ethyl)-5-(N-methylsulfamoyl)thiophene-2-carboxamide]
≤ 1 µM | CS(=O)(=O)c1ccc(C(=O)NCc2ccc(Cl)cc2Cl)s1 [Compound 6, N-(2,4-dichlorobenzyl)-5-(methylsulfonyl)thiophene-2-carboxamide]
≤ 1 µM | CNS(=O)(=O)c1ccc(C(=O)NCc2ccc(Cl)cc2Br)s1 [Compound 11, N-(2-bromo-4-chlorobenzyl)-5-(N-methylsulfamoyl)thiophene-2-carboxamide]
≤ 1 µM | CNS(=O)(=O)c1ccc(C(=O)NCc2ccc(Cl)cc2OC)s1 [Compound 13, N-(4-chloro-2-methoxybenzyl)-5-(N-methylsulfamoyl)thiophene-2-carboxamide]
≤ 1 µM | CNS(=O)(=O)c1ccc(C(=O)NCc2ccc(Cl)cc2O)s1 [Compound 14, N-(4-chloro-2-hydroxybenzyl)-5-(N-methylsulfamoyl)thiophene-2-carboxamide]
≤ 1 µM | CCS(=O)(=O)c1ccc(C(=O)NCc2ccc(Cl)cc2Cl)s1 [Compound 16, N-(2,4-dichlorobenzyl)-5-(ethylsulfonyl)thiophene-2-carboxamide]
1 to 20 µM | CNS(=O)(=O)c1ccc(C(=O)NCc2ccc(C#N)cc2)s1 [Compound 17, N-(4-cyanobenzyl)-5-(N-methylsulfamoyl)thiophene-2-carboxamide]
≤ 1 µM | CNS(=O)(=O)c1ccc(C(=O)NCc2ccc(Br)cc2)s1 [Compound 21, N-(4-bromobenzyl)-5-(N-methylsulfamoyl)thiophene-2-carboxamide]
≥ 20 µM | CC(C)Oc1ccc(CNC(=O)c2ccc(S(C)(=O)=O)s2)cc1 [Compound 25, N-(4-isopropoxybenzyl)-5-(methylsulfonyl)thiophene-2-carboxamide]
≤ 1 µM | CNS(=O)(=O)c1ccc(C(=O)NCc2ccc(C3CC3)cc2)s1 [Compound 26, N-(4-cyclopropylbenzyl)-5-(N-methylsulfamoyl)thiophene-2-carboxamide]
≥ 20 µM | CNS(=O)(=O)c1ccc(C(=O)NCc2ccc(OC(C)C)cc2)s1 [Compound 27, N-(4-isopropoxybenzyl)-5-(N-methylsulfamoyl)thiophene-2-carboxamide]
≥ 20 µM | CNS(=O)(=O)c1ccc(C(=O)NCc2ccc(N3CCCC3)cc2)s1 [Compound 30, 5-(N-methylsulfamoyl)-N-(4-(pyrrolidin-1-yl)benzyl)thiophene-2-carboxamide]
≤ 1 µM | CS(=O)(=O)c1ccc(C(=O)NCc2ccc(C3CC3)cc2)s1 [Compound 31, N-(4-cyclopropylbenzyl)-5-(methylsulfonyl)thiophene-2-carboxamide]

From patent publication US20230219921A1, “KCNT1 INHIBITORS AND METHODS OF USE” (Praxis Precision Medicines, Inc., priority 2020, published 2023)
